Test results: patent US8772499B2, “TRPV3 modulators” (AbbVie Inc., priority 2011, dated 2014)
Where two headings read alike, the source gives them in different places.

Legend:
human TRPV3 = target: T1, human TRPV3 (Homo sapiens, UniProt Q8NET8); assay: In vitro antagonism of recombinant human TRPV3 activation (FLIPR Tetra calcium assay); assay type: cell-based; conditions: HEK293 cells stably expressing human TRPV3, agonist 2-APB at 80 μM
T1 construct: expressed in transfected cells
T1 sequence (Q8NET8 1-790): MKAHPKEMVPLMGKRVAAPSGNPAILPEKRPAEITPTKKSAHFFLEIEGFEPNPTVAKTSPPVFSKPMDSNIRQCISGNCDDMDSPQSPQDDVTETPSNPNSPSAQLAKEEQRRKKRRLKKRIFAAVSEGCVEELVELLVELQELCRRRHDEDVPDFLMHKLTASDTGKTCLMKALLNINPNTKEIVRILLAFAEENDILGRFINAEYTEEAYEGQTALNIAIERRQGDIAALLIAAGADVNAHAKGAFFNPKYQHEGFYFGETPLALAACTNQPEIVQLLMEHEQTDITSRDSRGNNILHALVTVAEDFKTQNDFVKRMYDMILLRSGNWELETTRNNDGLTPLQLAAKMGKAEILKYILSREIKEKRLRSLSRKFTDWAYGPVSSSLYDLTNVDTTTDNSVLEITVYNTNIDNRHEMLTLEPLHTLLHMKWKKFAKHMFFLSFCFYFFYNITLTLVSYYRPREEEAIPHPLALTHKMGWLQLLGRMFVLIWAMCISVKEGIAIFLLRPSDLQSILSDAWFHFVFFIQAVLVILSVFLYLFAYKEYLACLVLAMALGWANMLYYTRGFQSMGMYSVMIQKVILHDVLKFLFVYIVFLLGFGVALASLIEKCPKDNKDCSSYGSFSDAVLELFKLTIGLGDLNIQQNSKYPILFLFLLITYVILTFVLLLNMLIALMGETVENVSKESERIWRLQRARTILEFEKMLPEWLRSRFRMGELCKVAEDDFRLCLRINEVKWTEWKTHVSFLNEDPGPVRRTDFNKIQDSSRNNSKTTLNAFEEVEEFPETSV
Procedure, shortened: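 HEK293 cells stably expressing human TRPV3, loaded with Calcium-4 dye for 90–120 min, received compound in DPBS, then 80 μM 2-APB (EC80) 3 min later. Max-minus-min fluorescence expressed as % of 2-APB response without antagonist; IC50 values mostly averages of n≥2 runs.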

[1] = In vitro human microsomal stability assay; assay type: in vitro ADME
Procedure, shortened: (§1)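 NADPH-fortified liver microsome incubations at 37° C. served for both species: Sprague-Dawley rat and human.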

[2] = In vitro rat microsomal stability assay; assay type: in vitro ADME, rat (Sprague-Dawley)
Procedure, shortened: as §1

[3] = actual measured value shown parenthetically, in most cases average of at least two runs, read-out: IC50
[4] = human liver microsomes, 0.5 μM substrate, 0.25 mg/mL microsomal protein, pH 7.4, 37° C., NADPH, 30 minutes
[5] = rat liver microsomes (Sprague-Dawley), 0.5 μM substrate, 0.25 mg/mL microsomal protein, pH 7.4, 37° C., NADPH, 30 minutes
[6] = human, microsomes, 0.5 h, 0.5 μM, pH 7.4
[7] = Sprague-Dawley, rat, microsomes, 0.5 h, 0.5 μM, pH 7.4
[8] = reported range, read-out: IC50 (range class)

IC50 (human TRPV3; [3]) [nM]	HUMAN MICROSOMAL STABILITY (% REMAINING AFTER 30 MINUTES) [1, 6] [%]	RAT MICROSOMAL STABILITY (% REMAINING AFTER 30 MINUTES) [2, 7] [%]	IC50 (human TRPV3; [8]) [nM]	SMILES	HUMAN MICROSOMAL STABILITY (% REMAINING AFTER 30 MINUTES) [1, 4] [%]	RAT MICROSOMAL STABILITY (% REMAINING AFTER 30 MINUTES) [2, 5] [%]
420	24	11	–	OC(c1ccccn1)C1(c2ccc(OC(F)(F)F)cc2)CCC1 (stereo not shown) [Example 12, pyridin-2-yl{1-[4-(trifluoromethoxy)phenyl]cyclobutyl}methanol]	–	–
820	>85	50	1100 to 5000	OC1CC(c2ccc(OC(F)(F)F)cc2)(C(O)c2ccccn2)C1 (single isomer, unassigned) [Example 131]	–	–
370	38	7.0	–	OC(c1ccccn1)C1(c2ccc(C(F)(F)F)cc2)CCCO1 (single isomer, unassigned) [Example 88, (anti)-pyridin-2-yl{2-[4-(trifluoromethyl)phenyl]tetrahydrofuran-2-yl}methanol]	–	–
> 20000	26	<0.01	> 20000	OC(C1CCc2cccnc21)C1(c2ccc(C(F)(F)F)cc2)CCC1 (stereo not drawn) [Example 174, (syn)-6,7-dihydro-5H-cyclopenta[b]pyridin-7-yl{1-[4-(trifluoromethyl)-phenyl]cyclobutyl}methanol]	–	–
400	0.72	0.80	–	OC(c1ccccn1)C1(c2cccc(OC(F)(F)F)c2)CCC1 (stereo not shown) [Example 11, pyridin-2-yl{1-[3-(trifluoromethoxy)phenyl]cyclobutyl}methanol]	–	–
2000	70	4.3	–	OC(c1ccccn1)C1(c2ccc(C(F)(F)F)cc2)CCCO1 (single isomer, unassigned) [Example 89, (syn)-pyridin-2-yl{2-[4-(trifluoromethyl)phenyl]tetrahydrofuran-2-yl}methanol]	–	–
1690	42	<0.01	–	COC1CC(c2ccc(Cl)c(Cl)c2)(C(O)c2ccccn2)C1 [Example 150, (S)-[cis-1-(3,4-dichlorophenyl)-3-methoxycyclobutyl](pyridin-2-yl)-methanol]	–	–
2600	58	47	–	OC(c1ccccn1)C1(c2ccc(OC(F)(F)F)cc2)CCOCC1 (stereo not shown) [Example 67, pyridin-2-yl{4-[4-(trifluoromethoxy)phenyl]tetrahydro-2H-pyran-4-yl}-methanol]	–	–
740	>85	>85	–	OC1CC(c2cc(C(F)(F)F)ccn2)(C(O)c2ccccn2)C1 [Example 282, cis-3-[(S)-hydroxy(pyridin-2-yl)methyl]-3-[4-(trifluoromethyl)pyridin-2-yl]cyclobutanol]	–	–
460	35	<0.01	–	Cc1ccccc1C1(C(O)c2ccccn2)CCCO1 (stereo not shown) [Example 90, [2-(2-methylphenyl)tetrahydrofuran-2-yl](pyridin-2-yl)methanol]	–	–
3930	61	3.2	–	CON=C1CC(c2ccc(OC(F)(F)F)cc2)([C@H](O)c2ccccn2)C1 (stereo partly drawn) [Example 249, (S)-{3-(methoxyimino)-1-[4-(trifluoromethoxy)phenyl]cyclobutyl}(pyridin-2-yl)methanol]	–	–
1470	>85	70	–	CC1(O)CC(c2cc(C(F)(F)F)ccn2)(C(O)c2ccccn2)C1 (stereo not shown) [Example 286]	–	–
> 20000	47	8.6	> 20000	OC(c1ccccn1)C1(c2ccc(Cl)c(Cl)c2)COC1 (stereo not shown) [Example 87, [3-(3,4-dichlorophenyl)oxetan-3-yl](pyridin-2-yl)methanol]	–	–
3110	4.0	<0.01	–	Nc1cccnc1C(O)C1(c2ccc(Cl)c(Cl)c2)CCC1 (stereo not shown) [Example 130, (3-aminopyridin-2-yl)[1-(3,4-dichlorophenyl)cyclobutyl]methanol]	–	–
1510	0.12	0.18	–	Cc1ccc(C2(C(O)c3ccccn3)CCC2)cc1 (stereo not shown) [Example 9, [1-(4-methylphenyl)cyclobutyl](pyridin-2-yl)methanol]	–	–
2070	>85	65	–	N[C@@H]1CCC[C@H]1[C@@H](O)C1(c2ccc(OC(F)(F)F)cc2)CCC1 [Example 223, (R)-[(1R,2R)-2-aminocyclopentyl]{1-[4-(trifluoromethoxy)phenyl]-cyclobutyl}methanol]	–	–
2820	>85	34	–	N[C@H]1CCC[C@@H]1[C@H](O)C1(c2ccc(Cl)cc2)CCC1 [Example 225, (S)-[(1S,2S)-2-aminocyclopentyl][1-(4-chlorophenyl)cyclobutyl]methanol]	–	–
10800	>85	67	–	CC1(O)CC(c2ccc(C(F)(F)F)cc2)(C(O)c2ccccn2)C1 (single isomer, unassigned) [Example 233]	–	–
760	11	0.94	–	OC(CC1(c2cccc(OC(F)(F)F)c2)CCC1)c1ccccn1 (stereo not shown) [Example 77, 1-(pyridin-2-yl)-2-{1-[3-(trifluoromethoxy)phenyl]cyclobutyl}ethanol]	–	–
1220	0.68	0.15	–	OC(c1ccccn1)C1(c2ccccc2OC(F)(F)F)CCCO1 (single isomer, unassigned) [Example 96, (anti)-pyridin-2-yl{2-[2-(trifluoromethoxy)phenyl]tetrahydrofuran-2-yl}-methanol]	–	–
1970	>85	>85	–	O=C1CC(c2cc(C(F)(F)F)ccn2)([C@H](O)c2ccccn2)C1 [Example 277, 3-[(S)-hydroxy(pyridin-2-yl)methyl]-3-[4-(trifluoromethyl)pyridin-2-yl]-cyclobutanone]	–	–
230	56	59	–	O[C@H](c1ccccn1)[C@]1(c2cccc(C(F)(F)F)c2)C[C@@H](O)C1 [Example 264, trans-3-[(S)-hydroxy(pyridin-2-yl)methyl]-3-[3-(trifluoromethyl)phenyl]-cyclobutanol]	–	–
2610	71	81	–	O=C1CC(c2ccc(C(F)(F)F)cc2)([C@H](O)c2ccccn2)C1 (single isomer, unassigned) [Example 164]	–	–
2240	44	55	–	O=C1CC(c2cccc(OC(F)(F)F)c2)([C@H](O)c2ccccn2)C1 (single isomer, unassigned) [Example 256]	–	–

SMILES	IC50 (human TRPV3; [3]) [nM]	HUMAN MICROSOMAL STABILITY (% REMAINING AFTER 30 MINUTES) [1, 6] [%]	RAT MICROSOMAL STABILITY (% REMAINING AFTER 30 MINUTES) [2, 7] [%]	IC50 (human TRPV3; [8]) [nM]	HUMAN MICROSOMAL STABILITY (% REMAINING AFTER 30 MINUTES) [1, 4] [%]	RAT MICROSOMAL STABILITY (% REMAINING AFTER 30 MINUTES) [2, 5] [%]
Cl.O[C@H](c1ccccn1)C1(c2ccc(Cl)c(Cl)c2)CC(F)(F)C1 [Example 111, (S)-[1-(3,4-dichlorophenyl)-3,3-difluorocyclobutyl](pyridin-2-yl)methanol hydrochloride]	190	–	–	–	52	23
OC(c1ccccn1)C1(c2ccccc2F)CCCO1 (stereo not shown) [Example 102]	> 20000	–	–	> 20000	45	0.55
